The values below come from US20180327354A1, “Unnatural Analogues of Calcitriol and Uses Thereof” (Vidasym, Inc., priority 2009, published 2018).

One data set has as its system thrombospondin-1. Nature of the data set: Thrombospondin-1 protein in human coronary artery smooth muscle cells (Western blot). It is filed as cell-based. Particulars: HCASMC, 48 h, FIG. 21A. How it is done: (§1) Human coronary artery smooth muscle cells (HCASM) were incubated with Vida-5 or Vida-11 at different concentrations for 48 h and then were solubilized in 50 al of SDS-PAGE sample buffer. The protein content in each sample was determined by the bicinchoninic acid protein assay. Samples were resolved by SDS-PAGE using a 4-12% NuPAGE gel, and proteins were electrophoretically transferred to polyvinylidene fluoride membrane for Western blotting. The membrane was blocked for 1 h at 25° C. with 5% nonfat dry milk in phosphate buffered saline Tween-20 (PBS-T) and then incubated with a mouse anti-thrombospondin-1 monoclonal antibody (2,000-fold dilution), or a mouse anti-TM monoclonal antibody (2,000-fold dilution) in PBS-T overnight at 4° C.
(§2) The membrane was washed with PBS-T and incubated with a horseradish peroxidase-labeled anti-mouse antibody for 1 h at 25° C. The membrane was then incubated with Amersham ECL Plus Western Blotting Detection Reagents. Specific bands were visualized by the Multiimage II of Alpha Innotech imaging system. Band intensity was quantified using Spot Denso.

The test system of another data set is thrombomodulin. Nature of the data set: Thrombomodulin protein in human coronary artery smooth muscle cells (Western blot). Format: cell-based. Conditions: HCASMC, 48 h, FIG. 21B. How it is done:
as §1, §2

The test system of data set [1] is 5/6 nephrectomized uremic rats. Nature of the data set: Left ventricular hypertrophy in 5/6 nephrectomized uremic rats. Format: in vivo, Sprague Dawley rats. Particulars: 5/6 NX rats, 0.16 and 0.64 μg/kg, LVH study.

“Also recorded” adds a separate entry of the source.

On to `C=C1[C@H](O)CC(=C/C=C2\CCCC3(C)C2CCC3[C@@H](C)OC[C@H](C)C(C)(C)O)C[C@H]1O` (stereo partly drawn) [Vida-5, (1R,3R)-5-((E)-2-((3αS,7αS)-1-((R)-1-((S)-3-hydroxy-2,3-dimethylbutoxy)ethyl)-7α-methyldihydro-1H-inden-4(2H,5H,6H, 7H, 7αH)-ylidene)ethylidene)-2-methylenecyclohexane-1,3-diol], for which the thrombospondin-1 protein expression result in the data set on thrombospondin-1 is on record as “suppress; also recorded: significantly reduced”. For the same compound, the thrombomodulin protein expression entry in the data set with thrombomodulin is given as “induce; also recorded: increased”.

As for `CCC(O)(CC)CCO[C@H](C)C1CCC2/C(=C/C=C3C[C@@H](O)C4(CC4)[C@H](O)C3)CCCC21C` (stereo partly drawn) [Vida-10, (4R,8R)-6-((E)-2-((1S,7αS)-1-((R)-1-(3-ethyl-3-hydroxypentyloxy)ethyl)-7α-methyldihydro-1H-inden-4(2H,5H,6H,7H,7αH)-ylidene)ethylidene)spiro[2.5]octane-4,8-diol], the “effect on serum Ca” value in data set [1] was “no effect”.
